According to patent US20140179681A1, “METHODS AND COMPOSITIONS OF TARGETED DRUG DEVELOPMENT” (priority 2010, published 2014):
Where two headings read alike, the source gives them in different places.

Legend:
[1] = test system: epithelial carcinoma A431 cell line; test: MTT Cell Proliferation Assay, A431 cells; type: cell-based; conditions: for IC50: Homo sapiens, A-431, Table 11
How it was run: (§1)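 Each concentration ran in quadruplicate across duplicate plates, with compounds serially diluted in DMSO and delivered at 0.5% DMSO in 0.5% FBS medium for 3 days.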

MDBK line = test: MTT Cell Proliferation Assay, MDBK cells; type: cell-based, bovine; conditions: for IC50: Bos taurus, MDBK, Table 11, second of x/y(ratio): MDBK
How it was run: as §1

[2] = standard at 23.5 μM final concentration
[3] = standard at 31.125 μM final concentration

IC50 ([1]; first of x/y(ratio): A431, unit inferred, read-out: MTT Follow-up (first value)) [µM]	IC50 ([1]; first of x/y(ratio): A431, unit not printed (doses in μM), read-out: MTT Screen (first value)) [µM]	Compound	MTT assay (first value) ([1]; Table 10, first of x/y(ratio): A431, three day treatment, unit not printed (doses in μM))	activity in A431 [1, 2]	activity in A431 [1, 3] [%]	IC50 (MDBK line; unit inferred, read-out: MTT Follow-up (second value)) [µM]	IC50 (MDBK line; unit not printed (doses in μM), read-out: MTT Screen (second value)) [µM]	activity in MDBK cells (MDBK line; [2])	activity in MDBK cells (MDBK line; [3])
–	–	Cc1cc(C)cc(NS(=O)(=O)c2ccc(NC(=S)Nc3ccccc3)cc2)c1 [AD4-11091]	non-convergent	–	–	–	–	–	–
22.1	22.8	CCc1cc2c(CN3CCN(Cc4ccc5c(c4)OCO5)CC3)cc(=O)oc2cc1O [AD4-1734]	–	less than 100%	100	40.2	42.5	0	less than 50%
